{
  "source": "patent US10112907B2",
  "about": "“Substituted indazoles for treating tendon and/or ligament injuries” (NOVARTIS AG, priority 2016, dated 2018)",
  "key": {"[1]": {"target": "recombinant human Jak1 (aa 866-1154) (Homo sapiens (Human), UniProt P23458)", "sequence (P23458 866-1154)": "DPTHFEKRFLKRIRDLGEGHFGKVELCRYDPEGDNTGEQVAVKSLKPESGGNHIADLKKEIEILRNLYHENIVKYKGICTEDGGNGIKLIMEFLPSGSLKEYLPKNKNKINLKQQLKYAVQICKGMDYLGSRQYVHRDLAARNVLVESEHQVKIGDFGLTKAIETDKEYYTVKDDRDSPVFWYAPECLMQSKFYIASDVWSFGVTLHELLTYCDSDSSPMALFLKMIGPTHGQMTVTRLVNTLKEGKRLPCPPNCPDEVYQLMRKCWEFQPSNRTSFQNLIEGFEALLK", "test": "Kinase selectivity panel, substrate peptide phosphorylation (Caliper)", "assay_type": "biochemical"}, "[2]": {"target": "recombinant human Jak2 (aa808-1132) (Homo sapiens (Human), UniProt O60674)", "test": "Kinase selectivity panel, substrate peptide phosphorylation (Caliper)", "assay_type": "biochemical"}, "[3]": {"test_system": "collagen type I (Col1a2) gene expression in rat tail tendon fascicles", "test": "Ex vivo assay, Col1a2 mRNA in tendon fascicles (qPCR)", "assay_type": "cell-based, Sprague Dawley rat"}, "[4]": {"test_system": "Scleraxis (Scx) gene transcriptional activation in TT-D6 Scx-luciferase (ScxL) cell line", "test": "SCX-LUC in vitro assay (Scx-luciferase reporter)", "assay_type": "cell-based", "settings": "Mus musculus"}, "[5]": {"test_system": "Scleraxis (Scx) gene expression in rat tail tendon fascicles", "test": "Ex vivo assay, Scx mRNA in tendon fascicles (qPCR)", "assay_type": "cell-based, Sprague Dawley rat"}, "[6]": {"test_system": "Tenomodulin (Tnmd) gene expression in rat tail tendon fascicles", "test": "Ex vivo assay, Tnmd mRNA in tendon fascicles (qPCR)", "assay_type": "cell-based, Sprague Dawley rat"}, "[7]": {"target": "recombinant human Tyk2 (aa888-1187) (Homo sapiens (Human), UniProt P29597)", "sequence (P29597 888-1187)": "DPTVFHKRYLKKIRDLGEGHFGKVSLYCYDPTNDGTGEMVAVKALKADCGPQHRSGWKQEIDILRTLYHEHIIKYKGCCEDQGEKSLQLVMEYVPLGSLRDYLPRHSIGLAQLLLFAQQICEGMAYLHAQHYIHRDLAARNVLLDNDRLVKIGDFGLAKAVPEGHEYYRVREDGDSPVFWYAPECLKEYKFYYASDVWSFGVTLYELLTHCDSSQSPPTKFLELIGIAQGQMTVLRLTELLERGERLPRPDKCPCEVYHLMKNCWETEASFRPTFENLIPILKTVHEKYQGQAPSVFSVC", "test": "Kinase selectivity panel, substrate peptide phosphorylation (Caliper)", "assay_type": "biochemical", "settings": "45 uM ATP"}, "[8]": {"target": "recombinant human Jak3 (aa811-1124) (Homo sapiens (Human), UniProt P52333)", "sequence (P52333 811-1124)": "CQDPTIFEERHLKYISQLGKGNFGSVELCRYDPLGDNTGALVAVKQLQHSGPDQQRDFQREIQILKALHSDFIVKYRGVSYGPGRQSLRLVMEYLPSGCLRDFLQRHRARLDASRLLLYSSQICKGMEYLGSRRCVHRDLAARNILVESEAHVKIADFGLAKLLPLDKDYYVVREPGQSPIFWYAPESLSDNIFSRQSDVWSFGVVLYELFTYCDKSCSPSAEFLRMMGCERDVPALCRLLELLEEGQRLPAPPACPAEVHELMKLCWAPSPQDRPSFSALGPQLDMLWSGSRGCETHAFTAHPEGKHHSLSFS", "assay_type": "biochemical"}, "tendon lesion": {"test_system": "tendon lesion", "test": "In vivo assay, endochondral ossification readout (Alcian blue) in tendon lesion", "settings": "1 mg peri-tendinous injection 3 days post-surgery", "procedure": "Animals were treated 3 days post-surgery with 1 mg of compound of example 32 in 10 ul of vehicle delivered by injection under the skin in the peri-tendinous region. Tendons were harvested 25 days post-treatment. Strong Alcian blue staining could be seen in the lesion in the vehicle treated group which is typical of endochondral tissue forming which further ossifies with time. […] Definiens Tissue Studio software was used for quantitative image analysis of the Alcian blue positive area. Serial step sections encompassing 2 mm of the lesion were used for quantification."}, "Rat tail fascicles": {"test_system": "Rat tail fascicles", "test": "Ex vivo fascicle assay, mechanical testing", "parameters": "species or system rat (Sprague Dawley)", "settings": "1 uM, 37° C., 4 weeks", "text": "Tail from skeletal mature rat (Sprague Dawley, female, 30-50 weeks old) was removed and kept on ice. Approximately 40 mm long segment was cut from the mid-portion of the tail. Rat tail fascicles (n=12) were carefully extracted from the segment. Fascicles were then randomly selected into three groups, fresh (n=4), vehicle (n=4) and (S)-(1-((4-(3-amino-4-methyl-1H-indazol-5-yl)-3-methylphenyl)sulfonyl)-4,4-difluoropyrrolidin-2-yl)methanol (Test Compound A hereinafter) treated (n=4). Biomechanical properties were measure immediately after extraction for the fresh group. […]\nSamples were clamped for mechanical testing using a standard uniaxial material testing machine (ElectroPuls E3000, 50N load-cell, Instron, US) in a custom environmental testing chamber filled with PBS. Samples were preloaded to a position where crimp (macroscopic fascicle waviness) disappeared and initial length (L0) based on grip-to-grip distance was recorded. […] Sample lengths and corresponding forces were recorded to calculate engineering stress and strain. Young's moduli were calculated from the linear region of the stress-strain curves. […]"}, "[9]": {"settings": "read-out: Ex vivo Col1a2 (EC50 uM)"}, "[10]": {"settings": "read-out: Ex vivo SCX (EC50 uM)"}, "[11]": {"settings": "read-out: Ex vivo Tnmd (EC50 uM)"}, "[12]": {"settings": "Table 1, read-out: Ex vivo Col1a2 (EC50 uM)"}, "[13]": {"settings": "Table 1, read-out: Scx-Luc (EC50 uM)"}, "[14]": {"settings": "Table 1, read-out: Ex vivo SCX (EC50 uM)"}, "[15]": {"settings": "Table 1, read-out: Ex vivo Tnmd (EC50 uM)"}, "[16]": {"settings": "96 h, Table 3, four days, read-out: Ex vivo Col1a2 (EC50 μM)"}, "[17]": {"settings": "96 h, Table 3, four days, read-out: Scx-Luc (EC50 μM)"}, "[18]": {"settings": "96 h, Table 3, four days, read-out: Ex vivo Scx (EC50 μM)"}, "[19]": {"settings": "96 h, Table 3, four days, read-out: Ex vivo Tnmd (EC50 μM)"}},
  "note": "Where two headings read alike, the source gives them in different places.",
  "data": [
    {"smiles": "CC[C@@](C)(Nc1ccnc(-c2c[nH]c3ncccc23)n1)C(=O)NCC(F)(F)F", "note": "[reference compound]", "values": [
      {"measurement": "IC50", "setting": "[1]; 45 uM ATP", "result": 0.02, "unit": "µM"},
      {"measurement": "IC50", "setting": "[2]", "result": 0.13, "unit": "µM"},
      {"measurement": "EC50", "setting": "[3]; [9]", "result": 0.88, "unit": "µM"},
      {"measurement": "EC50", "setting": "[4]; read-out: Scx-Luc (EC50 uM)", "result": 0.03, "unit": "µM"},
      {"measurement": "EC50", "setting": "[5]; [10]", "result": 1.65, "unit": "µM"},
      {"measurement": "EC50", "setting": "[6]; [11]", "result": 1.77, "unit": "µM"}
    ]},
    {"smiles": "N#Cc1ccc(COc2ccc(-c3cccc4nc(NC(=O)C5CC5)nn34)cc2)cn1", "note": "[reference compound]", "values": [
      {"measurement": "IC50", "setting": "[1]", "result": 0.001, "unit": "µM"},
      {"measurement": "IC50", "setting": "[7]", "result": 0.11, "unit": "µM"},
      {"measurement": "IC50", "setting": "[2]", "result": 0.03, "unit": "µM"},
      {"measurement": "EC50", "setting": "[3]; [12]", "result": 0.9, "unit": "µM"},
      {"measurement": "IC50", "setting": "[8]", "result": 0.38, "unit": "µM"},
      {"measurement": "EC50", "setting": "[4]; [13]", "result": 0.22, "unit": "µM"},
      {"measurement": "EC50", "setting": "[5]; [14]", "result": 5.77, "unit": "µM"},
      {"measurement": "EC50", "setting": "[6]; [15]", "result": 1.31, "unit": "µM"}
    ]},
    {"smiles": "CS(=O)(=O)NCc1nc2cnc3[nH]ccc3c2n1[C@@H]1C[C@H]2CC[C@@H]1C2", "note": "[reference compound]", "values": [
      {"measurement": "IC50", "setting": "[7]", "result": 0.14, "unit": "µM"},
      {"measurement": "IC50", "setting": "[2]", "result": 0.19, "unit": "µM"},
      {"measurement": "EC50", "setting": "[3]; [12]", "result": 3.76, "unit": "µM"},
      {"measurement": "IC50", "setting": "[8]", "result": 0.95, "unit": "µM"},
      {"measurement": "EC50", "setting": "[4]; [13]", "result": 0.18, "unit": "µM"},
      {"measurement": "EC50", "setting": "[5]; [14]", "result": 3.22, "unit": "µM"},
      {"measurement": "EC50", "setting": "[6]; [15]", "result": 4.57, "unit": "µM"}
    ]},
    {"smiles": "Cc1cc(Nc2nc(N[C@@H](C)c3ncc(F)cn3)ncc2Cl)n[nH]1", "note": "[reference compound]", "values": [
      {"measurement": "IC50", "setting": "[1]; 45 uM ATP", "result": 0.0002, "unit": "µM"},
      {"measurement": "IC50", "setting": "[7]", "result": 0.002, "unit": "µM"},
      {"measurement": "IC50", "setting": "[2]; 45 uM ATP", "result": 0.0007, "unit": "µM"},
      {"measurement": "EC50", "setting": "[3]; [9]", "result": 2.61, "unit": "µM"},
      {"measurement": "IC50", "setting": "[8]; 45 uM ATP", "result": 0.06, "unit": "µM"},
      {"measurement": "EC50", "setting": "[4]; read-out: Scx-Luc (EC50 uM)", "result": 0.008, "unit": "µM"},
      {"measurement": "EC50", "setting": "[5]; [10]", "result": 3.37, "unit": "µM"},
      {"measurement": "EC50", "setting": "[6]; [11]", "result": 3.3, "unit": "µM"}
    ]},
    {"smiles": "Cc1cc(S(=O)(=O)N2CC(F)(F)C[C@H]2CO)ccc1-c1ccc2[nH]nc(N)c2c1C", "note": "[Example 32, (S)-(1-((4-(3-amino-4-methyl-1H-indazol-5-yl)-3-methylphenyl)sulfonyl)-4,4-difluoropyrrolidin-2-yl)methanol]", "values": [
      {"measurement": "EC50", "setting": "[3]; [16]", "result": 4.59, "unit": "µM"},
      {"measurement": "effect on improper healing (aberrant differentiation towards chondrogenic and osteogenic lineages)", "setting": "tendon lesion; 25 days post-treatment", "result": "able to counter some of the improper healing"},
      {"measurement": "Endochondral ossification readout Alcian Blue positive (mm^2/section), Mean", "setting": "tendon lesion; tendons harvested 25 days post-treatment", "result": 25.09, "unit": "mm^2/section"},
      {"measurement": "EC50", "setting": "[4]; [17]", "result": 0.518, "unit": "µM"},
      {"measurement": "EC50", "setting": "[5]; [18]", "result": 5.56, "unit": "µM"},
      {"measurement": "EC50", "setting": "[6]; [19]", "result": 6.1, "unit": "µM"},
      {"measurement": "tendon degeneration in unloaded condition (tendon structure, failure stress, Young's modulus)", "setting": "Rat tail fascicles", "result": "could prevent the degeneration"}
    ]},
    {"smiles": "CCS(=O)(=O)N1CC(CC#N)(n2cc(-c3ncnc4[nH]ccc34)cn2)C1", "values": [
      {"measurement": "IC50", "setting": "[7]", "result": 0.03, "unit": "µM"}
    ]},
    {"smiles": "Cc1cc(S(=O)(=O)N[C@H]2C[C@](O)(C(F)(F)F)C2)ccc1-c1ccc2[nH]nc(N)c2c1Cl", "note": "[Example 37, 4-(3-amino-4-chloro-1H-indazol-5-yl)-N-((1s,3s)-3-hydroxy-3-(trifluoromethyl)cyclobutyl)-3-methylbenzenesulfonamide]", "values": [
      {"measurement": "EC50", "setting": "[3]; [16]", "result": 1.82, "unit": "µM"},
      {"measurement": "EC50", "setting": "[4]; [17]", "result": 0.227, "unit": "µM"},
      {"measurement": "EC50", "setting": "[5]; [18]", "result": 0.996, "unit": "µM"},
      {"measurement": "EC50", "setting": "[6]; [19]", "result": 1.69, "unit": "µM"}
    ]},
    {"smiles": "N#CC[C@H](C1CCCC1)n1cc(-c2ncnc3[nH]ccc23)cn1", "note": "[reference compound]", "values": [
      {"measurement": "EC50", "setting": "[3]; [9]", "result": 2.64, "unit": "µM"},
      {"measurement": "EC50", "setting": "[4]; read-out: Scx-Luc (EC50 uM)", "result": 0.12, "unit": "µM"},
      {"measurement": "EC50", "setting": "[5]; [10]", "result": 3.13, "unit": "µM"},
      {"measurement": "EC50", "setting": "[6]; [11]", "result": 0.74, "unit": "µM"}
    ]},
    {"smiles": "Cc1cc(S(=O)(=O)N[C@H]2C[C@](O)(C(F)(F)F)C2)ccc1-c1ccc2[nH]nc(N)c2c1C", "note": "[Example 31, 4-(3-amino-4-methyl-1H-indazol-5-yl)-N-((1s,3s)-3-hydroxy-3-(trifluoromethyl)cyclobutyl)-3-methylbenzenesulfonamide]", "values": [
      {"measurement": "EC50", "setting": "[3]; [16]", "result": 4.18, "unit": "µM"},
      {"measurement": "EC50", "setting": "[4]; [17]", "result": 0.126, "unit": "µM"},
      {"measurement": "EC50", "setting": "[5]; [18]", "result": 5.54, "unit": "µM"},
      {"measurement": "EC50", "setting": "[6]; [19]", "result": 3.77, "unit": "µM"}
    ]}
  ]
}
